Counter-ions that a name gives are not always drawn.
System: influx of neutrophils to the lung in LPS-challenged rats
Assay: Rat LPS neutrophilia model
Type: in vivo
Conditions: intratracheal, LPS aerosol 100 ug/ml 15 min, lavage 4 hours later, in at least one of the range of conditions tested, significant p<0.05, nonsignificant p>0.05
Description: The effect of compounds on the influx of neutrophils to the lung in LPS-challenged rats is evaluated as follows. The test compound is suspended in one of the following solutions: 0.5% tween 80/PBS, 0.5% tween 80/saline, 10% EtOH/saline (with pH adjusted to 2.0, or 8.0 with HCl, or unadjusted), Saline @ pH 2.0, 6.5 or 8.0, 0.5% Tragacanth, 1% DMSO/20% Encapsin/Saline, or acidified 5% Tragacanth. The suspension process may be aided by the use of a glass homogenizer. For intratracheal administration, the animals are anesthetized with inhaled isoflurane and placed in a supine position, the trachea is intubated with a steel gavage needle (1.5 inch, 22 gauge, small ball) or a Penn-Century Microsprayer Aerosolizer (model IA-IB) and 200 ul of dosing solution is delivered. The animals are visually monitored during the recovery process, which typically occurs within two minutes. It is noted that the test compounds may be alternatively administered via the microsprayer in a dry powder blend with a suitable excipient, such as lactose.
Rats treated with compound or vehicle (15 min-24 hours pretreatment) are exposed to an LPS aerosol (100 ug/ml) for 15 min. Four hours later the rats are euthanized with pentobarbital (100 mg/kg, i.p.) and the airways are lavaged with 5 washes of 5 ml of phosphate buffered saline. The harvested cells are stained (Diffquick) and counted to determine total and differential cell data. […] Inhibition of neutrophil levels relative to no compound controls is calculated based on the differential counts.
The data is obtained as % inhibition using a particular concentration and pretreat time.

SMILES	inhibition of neutrophilia (neutrophil levels in lung lavage relative to no compound controls)
CNCCNc1nc(-c2cc(C(=O)NCC3CC3)ccc2C)c2ccc(=O)n(-c3c(F)cccc3F)c2n1 [Example 4]	statistically significant inhibition
Cc1ccc(C(=O)NC2CC2)cc1-c1nc(N2CCC(N)CC2)nc2c1ccc(=O)n2-c1c(F)cccc1F [Example 22, 3-[2-(4-amino-1-piperidinyl)-8-(2,6-difluorophenyl)-7-oxo-7,8-dihydropyrido[2,3-d]pyrimidin-4-yl]-N-cyclopropyl-4-methylbenzamide]	statistically significant inhibition
Cc1ccc(C(=O)NC2CC2)cc1-c1nc(NCc2ncc[nH]2)nc2c1ccc(=O)n2-c1c(F)cccc1F [Example 23, N-cyclopropyl-3-{8-(2,6-difluorophenyl)-2-[(1H-imidazol-2-ylmethyl)amino]-7-oxo-7,8-dihydropyrido[2,3-d]pyrimidin-4-yl}-4-methylbenzamide]	statistically nonsignificant inhibition
Cc1ccc(C(=O)NCC2CC2)cc1-c1nc(N2CCC(N)CC2)nc2c1ccc(=O)n2-c1c(F)cccc1F [Example 27, 3-[2-(4-amino-1-piperidinyl)-8-(2,6-difluorophenyl)-7-oxo-7,8-dihydropyrido[2,3-d]pyrimidin-4-yl]-N-(cyclopropylmethyl)-4-methylbenzamide]	statistically significant inhibition
Cc1ccc(C(=O)NCCc2ccccc2)cc1-c1nc(NC2CC(C)(C)NC(C)(C)C2)nc2c1ccc(=O)n2-c1c(F)cccc1F [Example 28, 3-{8-(2,6-difluorophenyl)-7-oxo-2-[(2,2,6,6-tetramethyl-4-piperidinyl)amino]-7,8-dihydropyrido[2,3-d]pyrimidin-4-yl}-4-methyl-N-(2-phenylethyl)benzamide]	statistically nonsignificant inhibition
CNCCNc1nc(-c2cc(C(=O)NCCc3ccccc3)ccc2C)c2ccc(=O)n(-c3c(F)cccc3F)c2n1 [Example 29, 3-(8-(2,6-difluorophenyl)-2-{[2-(methylamino)ethyl]amino}-7-oxo-7,8-dihydropyrido[2,3-d]pyrimidin-4-yl)-4-methyl-N-(2-phenylethyl)benzamide]	statistically significant inhibition
Cc1ccc(NC(=O)c2cccc3cc[nH]c23)cc1-c1nc(NC(CO)CO)nc2c1ccc(=O)n2-c1c(F)cccc1F [Example 44, N-[3-(8-(2,6-difluorophenyl)-2-{[2-hydroxy-1-(hydroxymethyl)ethyl]amino}-7-oxo-7,8-dihydropyrido[2,3-d]pyrimidin-4-yl)-4-methylphenyl]-1H-indole-7-carboxamide trifluoroacetate]	statistically significant inhibition
CNCCNc1nc(-c2cc(C(=O)NC3CCCC3)ccc2C)c2ccc(=O)n(-c3c(F)cccc3F)c2n1 [Example 58, N-cyclopentyl-3-(8-(2,6-difluorophenyl)-2-{[2-(methylamino)ethyl]amino}-7-oxo-7,8-dihydropyrido[2,3-d]pyrimidin-4-yl)-4-methylbenzamide]	statistically significant inhibition
CNCCNc1nc(-c2cc(C(=O)NCc3ccccc3)ccc2C)c2ccc(=O)n(-c3c(F)cccc3F)c2n1 [Example 59, 3-(8-(2,6-difluorophenyl)-2-{[2-(methylamino)ethyl]amino}-7-oxo-7,8-dihydropyrido[2,3-d]pyrimidin-4-yl)-4-methyl-N-(phenylmethyl)benzamide]	statistically significant inhibition
CNCCNc1nc(-c2cc(C(=O)Nc3ccc(F)cc3)ccc2C)c2ccc(=O)n(-c3c(F)cccc3F)c2n1 [Example 60, 3-(8-(2,6-difluorophenyl)-2-{[2-(methylamino)ethyl]amino}-7-oxo-7,8-dihydropyrido[2,3-d]pyrimidin-4-yl)-N-(4-fluorophenyl)-4-methylbenzamide]	statistically significant inhibition
CNCCNc1nc(-c2cc(C(=O)Nc3nccs3)ccc2C)c2ccc(=O)n(-c3c(F)cccc3F)c2n1 [Example 61, 3-(8-(2,6-difluorophenyl)-2-{[2-(methylamino)ethyl]amino}-7-oxo-7,8-dihydropyrido[2,3-d]pyrimidin-4-yl)-4-methyl-N-1,3-thiazol-2-ylbenzamide]	statistically significant inhibition
Cc1ccc(C(=O)Nc2nccs2)cc1-c1nc(NC2CC(C)(C)NC(C)(C)C2)nc2c1ccc(=O)n2-c1c(F)cccc1F [Example 67, 3-{8-(2,6-difluorophenyl)-7-oxo-2-[(2,2,6,6-tetramethyl-4-piperidinyl)amino]-7,8-dihydropyrido[2,3-d]pyrimidin-4-yl}-4-methyl-N-1,3-thiazol-2-ylbenzamide]	statistically nonsignificant inhibition
Cc1ccc(C(=O)NC(C)C)cc1-c1nc(N2CCC(N)CC2)nc2c1ccc(=O)n2-c1c(F)cccc1F [Example 68, 3-[2-(4-amino-1-piperidinyl)-8-(2,6-difluorophenyl)-7-oxo-7,8-dihydropyrido[2,3-d]pyrimidin-4-yl]-4-methyl-N-(1-methylethyl)benzamide]	statistically significant inhibition
CCCNC(=O)c1ccc(C)c(-c2nc(N3CCC(N)CC3)nc3c2ccc(=O)n3-c2c(F)cccc2F)c1 [Example 69, 3-[2-(4-amino-1-piperidinyl)-8-(2,6-difluorophenyl)-7-oxo-7,8-dihydropyrido[2,3-d]pyrimidin-4-yl]-4-methyl-N-propylbenzamide]	statistically significant inhibition
Cc1ccc(C(=O)NC2CCCC2)cc1-c1nc(N2CCC(N)CC2)nc2c1ccc(=O)n2-c1c(F)cccc1F [Example 70, 3-[2-(4-amino-1-piperidinyl)-8-(2,6-difluorophenyl)-7-oxo-7,8-dihydropyrido[2,3-d]pyrimidin-4-yl]-N-cyclopentyl-4-methylbenzamide]	statistically nonsignificant inhibition
Cc1ccc(C(=O)NCc2ccccc2)cc1-c1nc(N2CCC(N)CC2)nc2c1ccc(=O)n2-c1c(F)cccc1F [Example 71, 3-[2-(4-amino-1-piperidinyl)-8-(2,6-difluorophenyl)-7-oxo-7,8-dihydropyrido[2,3-d]pyrimidin-4-yl]-4-methyl-N-(phenylmethyl)benzamide]	statistically nonsignificant inhibition
Cc1ccc(C(=O)Nc2ccc(F)cc2)cc1-c1nc(N2CCC(N)CC2)nc2c1ccc(=O)n2-c1c(F)cccc1F [Example 72]	statistically significant inhibition
Cc1ccc(C(=O)Nc2nccs2)cc1-c1nc(N2CCC(N)CC2)nc2c1ccc(=O)n2-c1c(F)cccc1F [Example 73, 3-[2-(4-amino-1-piperidinyl)-8-(2,6-difluorophenyl)-7-oxo-7,8-dihydropyrido[2,3-d]pyrimidin-4-yl]-4-methyl-N-1,3-thiazol-2-ylbenzamide]	statistically significant inhibition
Cc1ccc(C(=O)NC2CCCC2)cc1-c1nc(NCc2ncc[nH]2)nc2c1ccc(=O)n2-c1c(F)cccc1F [Example 76, N-cyclopentyl-3-{8-(2,6-difluorophenyl)-2-[(1H-imidazol-2-ylmethyl)amino]-7-oxo-7,8-dihydropyrido[2,3-d]pyrimidin-4-yl}-4-methylbenzamide]	statistically nonsignificant inhibition
Cc1ccc(C(=O)NCc2ccccc2)cc1-c1nc(NCc2ncc[nH]2)nc2c1ccc(=O)n2-c1c(F)cccc1F [Example 77, 3-{8-(2,6-difluorophenyl)-2-[(1H-imidazol-2-ylmethyl)amino]-7-oxo-7,8-dihydropyrido[2,3-d]pyrimidin-4-yl}-4-methyl-N-(phenylmethyl)benzamide]	statistically significant inhibition
Cc1ccc(C(=O)Nc2ccc(F)cc2)cc1-c1nc(NCCN(C)C(=O)OC(C)(C)C)nc2c1ccc(=O)n2-c1c(F)cccc1F [Example 95, 1,1-dimethylethyl (2-{[8-(2,6-difluorophenyl)-4-(5-{[(4-fluorophenyl)amino]carbonyl}-2-methylphenyl)-7-oxo-7,8-dihydropyrido[2,3-d]pyrimidin-2-yl]amino}ethyl)methylcarbamate]	statistically nonsignificant inhibition
Cc1ccc(C(=O)Nc2ccc(F)cc2)cc1-c1nc(N(C)CCN(C)C)nc2c1ccc(=O)n2-c1c(F)cccc1F [Example 99, 3-{8-(2,6-difluorophenyl)-2-[[2-(dimethylamino)ethyl](methyl)amino]-7-oxo-7,8-dihydropyrido[2,3-d]pyrimidin-4-yl}-N-(4-fluorphenyl)-4-methylbenzamide]	statistically nonsignificant inhibition

Source: US8207176B2 (Glaxo Group Limited, priority 2005, dated 2012)
